The text below walks through data of article PMC6770728, “CYP2D6 Genotype Predicts Plasma Concentrations of Tamoxifen Metabolites in Ethiopian Breast Cancer Patients” (Cancers, 2019).

Like-named read-outs stand apart in the source and are kept apart here. Where only a bound is given, the exact number is not on record here.

The nature of data set [1]: Plasma concentrations of tamoxifen and its metabolites by LC-MS/MS in breast cancer patients on adjuvant tamoxifen. The data set is classed as in vivo, human. The conditions noted are these: for Plasma concentration (median + IQR): 81 Ethiopian breast cancer patients, tamoxifen 20 mg/day for at least three months; for MR E/NDM: listed as E. The method, then: This study was conducted at the radiotherapy center of Tikur Anbessa specialized hospital, Addis Ababa University, Addis Ababa, Ethiopia. A total of 81 female breast cancer patients who were on adjuvant tamoxifen were enrolled. These patients had completed a full course of chemotherapy and were on tamoxifen 20 mg/day for at least three months. None of the study participants were taking any known CYP2D6 enzyme inhibitor as co-medication. The study protocol was approved by the Institutional Review Board (IRB) of the College of Health Sciences, Addis Ababa University (AAU) (Ref No: 011/16/2016), the Armauer Hansen Research Institute Ethical Review Committee (AAERC) (Ref No: PO26/16) and the Ethiopian National Research Ethics Review Committee (NRERC) (Ref No: 3.10/235/2017). Signed informed consent was obtained from individual study participants prior to study enrolment. Patients’ demographic, clinical and tumor characteristics including age, menopausal status, performance status, weight, height, body mass index (BMI), histologic type of the tumor, degree of differentiation, tumor size, lymph node involvement, hormone receptor status and co-morbidity status were collected.
Blood samples were collected in EDTA tube, centrifuged at 2500 g for 10 minutes, and the separated plasma was stored at −80 °C until analysis. Tamoxifen (Tam) and its major metabolites N-desmethyltamoxifen (NDM), (Z)-4-hydroxytamoxifen (4-HT), and (Z)-endoxifen (E) were quantified in the TDM Laboratory, Department of Clinical Pharmacology, Karolinska Institutet (Stockholm, Sweden), by ultra-high-performance liquid chromatography (UHPLC) followed by electrospray tandem mass spectrometry (LC-MS/MS). Briefly, 400 µL internal standard solution (containing 2 ng/mL of Z/E-endoxifen-d5, and 4-OH-tamoxifen-d5, and 20 ng/mL of N-desmethyl-tamoxifen-d5, and tamoxifen-d5) was added to 200 µL of thawed plasma samples and mixed for 10 minutes in a micro plate shaker (Vx-2400 Multitube mixer, Troemner, Philadelphia, USA), followed by centrifugation at 3400 rpm at 4 °C for 10 min. The supernatant was then transferred to new glass vial and evaporated to dryness using vacuum centrifuge. The residue was dissolved in 50 µL methanol over a microplate shaker for 10 min and the resulting solution was then centrifuged at 3400 rpm for 10 min at 4 °C. Ten microliter (10 µL) of the solution was injected into the LC system (Dionex Ultimate 3000, UHPLC focused, Thermo Scientific, California, USA) coupled with a mass spectrometer (TSQ Quantiva, Thermo Scientific). Separation occurred on an Accucore C-18 column (150 × 2.1 mm, Thermo Scientific). The mobile phase for gradient elution consisted of solution A (10 mmol/L ammonium formate with 0.005% formic acid in water) and solution B (10 mmol/L ammonium formate with 0.005% formic acid in 99% methanol). The LC conditions were: column oven temperature of 40 °C, flow rate of 0.50 mL/min, autosampler temperature of 10 °C. Detection was in positive ion mode using electrospray ionization and monitored using Trace Finder software (Thermo Scientific). Under this condition, the retention times were 3.25, 3.26, 3.38, 4.03, and 4.11 min for E-endoxifen, Z-endoxifen, 4-OH-tamoxifen, N-desmethyltamoxifen, and tamoxifen, respectively. Calibration curves were constructed by plotting the ratio of the area of the compound and the internal standard against the standard analyte concentration. Three quality control (QC) samples involving, (i) low-level QC [QCL] (0.3 ng/mL of E and 4-HT and 3 ng/mL of NDM and Tam, (ii) mid-level QC [QCM] (8 ng/mL of E and 4-HT and 80 ng/mL of NDM and Tam), and (iii) high level QC [QCH] (80 ng/mL of E and 4-HT and 800 ng/mL of NDM and Tam) were also included at each run.
Descriptive statistics were computed to explore the demographic characteristics, clinical profiles, genotype frequencies of participants. Chi-square test was used to compare the observed and expected genotype frequency according to Hardy–Weinberg equilibrium. […]

Data set [2] has as its system estrogen receptor (ER). Set-up: method as in PMID 21451508. The conditions noted are these: endoxifen level 13 nM; cited from earlier work.
Details of data set [3]: method as in PMID 21430657. The conditions noted are these: endoxifen concentration >5.97 ng/mL; cited from earlier work.
For data set [4] the following is noted: cited from earlier work.
[5] abbreviates: ABCB1 c.4036A>G (rs3842) wild type genotype.
Setting [6] is: UGT2B15 c.1568A>C (rs4148269) wild type genotype.
The mark [7] stands for this setting: carriers of the G allele for ABCB1 c.4036A>G (rs3842).

As for `CC/C(=C(\c1ccccc1)c1ccc(OCCNC)cc1)c1ccccc1` [N-Desmethyl-tamoxifen, N-desmethyltamoxifen], the “Plasma concentration (median + IQR)” value in data set [1] is recorded as 257 (185.5–343) ng/mL. Besides, in data set [1] (human, in vivo), the “Metabolic ratio of N-desmethyl-tamoxifen to tamoxifen, MR NDM/Tam (median + IQR)” value is listed as 1.81 (1.51–2.26).
As to `CC/C(=C(\c1ccc(O)cc1)c1ccc(OCCNC)cc1)c1ccccc1` [Z-Endoxifen, (Z)-endoxifen], in data set [2], the “Occupancy of the estrogen receptor (ER) in vitro” value is recorded as 90%. For the same molecule, the “Median endoxifen concentration relative to 4-HT” value in data set [1] (7.94 vs 3.04 ng/mL) was determined as 2.6 times. The results for the “Plasma concentration (median + IQR)” value in data set [1] and in data set [1] (listed as endoxifen) were 7.94 (4.68–13.75) ng/mL and 7.94 ng/mL, respectively. The “Metabolic ratio of endoxifen to 4-hydroxy-tamoxifen, MR E/4-HT (median + IQR)” value in data set [1] (81 patients, plasma) is recorded as 2.85 (2.10–3.73). For the same molecule, in data set [1] (81 patients, plasma), the “Metabolic ratio of endoxifen to N-desmethyl-tamoxifen, MR E/NDM (median + IQR)” value is listed as 0.038 (0.021–0.06). The figures for the “MR E/4-HT” value in data set [1] (setting [5]) and in data set [1] (setting [7]) were 3.02 and 2.52, respectively. The “MR E/NDM” value in data set [1] (setting [5]) is 0.041; in data set [1] (setting [7]), 0.022. Besides, the entries for the “Patients with low endoxifen concentration (<5.9 ng/mL) / patients in group” value in data set [1] (CYP2D6 IM/IM diplotype), in data set [1] (CYP2D6 IM/PM diplotype) and in data set [1] (CYP2D6 PM/PM diplotype) were 1/1, 3/3 and 1/1, respectively. The “Proportion of patients with low endoxifen concentration (<5.9 ng/mL)” value is recorded as 41.7% in data set [1] (CYP2D6 NM/IM diplotype (5/12)), 31.4% in data set [1] (CYP2D6 NM/NM diplotype (11/35)), 66.7% in data set [1] (CYP2D6 NM/PM diplotype (6/9)) and 35.8% in data set [1] (all 81 patients). Besides, the “Median E/4-HT ratio” value was 2.06 in data set [1] (setting [6]) and 2.96 in data set [1] (carriers of C allele for UGT2B15 c.1568A>C (rs4148269)). For the same molecule, in data set [3], the “Lower risk of additional breast cancer events” value is 30%. Further, in data set [4] (CYP2D6 PMs, threshold 5.9 ng/mL), the “Proportion of PMs still able to generate therapeutic concentrations of endoxifen” value is given as 24%. Moreover, the “Proportion of CYP2D6 PMs below endoxifen level of 13 nM” value in data set [4] (CYP2D6 poor metabolizers) is recorded as 93%. The “Endoxifen plasma concentration lower than without CYP2D6 inhibitors” value was 38% in data set [4] (IMs on CYP2D6 inhibitors vs IMs not on CYP2D6 inhibitors) and 58% in data set [4] (NMs taking CYP2D6 inhibitors vs NMs not on CYP2D6 inhibitors). Besides, the “Proportion of patients unable to attain therapeutic threshold for endoxifen” value in data set [4] (Sweden) was 30%; in data set [4] (U.S.), 20%.
As for `CC/C(=C(\c1ccc(O)cc1)c1ccc(OCCN(C)C)cc1)c1ccccc1` [4-Hydroxy-tamoxifen, 4-hydroxy-tamoxifen], the “Plasma concentration (median + IQR)” value in data set [1] is 3.04 (2.15–4.0) ng/mL; in data set [1] (listed as 4-HT), 3.04 ng/mL. In addition, the “Metabolic ratio of 4-Hydroxy-tamoxifen to tamoxifen, MR 4-HT/Tam (median + IQR)” value in data set [1] (81 patients, plasma) was 0.022 (0.016–0.029).
`CC/C(=C(\c1ccccc1)c1ccc(OCCN(C)C)cc1)c1ccccc1` [Tamoxifen]: in data set [1], the “Plasma concentration (median + IQR)” value is 138 (105–200.5) ng/mL. Also, the Median plasma concentration is given as 173.8 ng/mL in data set [1] (setting [6]) and 125.9 ng/mL in data set [1] (patients with at least one variant allele for UGT2B15 c.1568A>C (rs4148269)). In addition, the “Plasma tamoxifen concentration of all included patients” value in data set [1] (the 81 patients included in the analysis) is given as > 150 nM.
